Source: ChEMBL document CHEMBL3045162, “Inhibition of HIV-1 replication by a tricyclic coumarin GUT-70 in acutely and chronically infected cells” (Bioorg Med Chem Lett, 2013)
Activity calls are given as the source filed them. No cut-off for these calls is given here.

How the values were obtained:
MOLT-4 [1] = test: Cytotoxicity against Homo sapiens (human) MOLT4 cells by MTT assay; assay type: cell-based
U1 [2] = test: Cytotoxicity against Homo sapiens (human) U1 cells by MTT assay in presence of TNF-alpha; assay type: cell-based
U1 [3] = test: Cytotoxicity against Homo sapiens (human) U1 cells by MTT assay in presence of PMA; assay type: cell-based
[4] = target: Transcription factor p65 (Homo sapiens) (UniProt Q04206); test: Inhibition of NF-kappa B p65 activity in TNFalpha-treated Homo sapiens (human) U1 cells at 10 uM after 2 to 4 hr by luciferase assay; assay type: cell-based
[5] = target: Transcription factor p65 (Homo sapiens) (UniProt Q04206); test: Reduction in NF-kappa B p65 cytosolic level in TNFalpha-treated Homo sapiens (human) U1 cells after 0.5 to 6 hr by Western blot analysis; assay type: cell-based
[6] = target: Transcription factor p65 (Homo sapiens) (UniProt Q04206); test: Inhibition of NF-kappa B p65 nuclear translocation in TNFalpha-treated Homo sapiens (human) U1 cells after 0.5 to 6 hr by Western blot analysis; assay type: cell-based
[7] = target: Transcription factor p65 (Homo sapiens) (UniProt Q04206); test: Binding affinity to NF-kappa B p65 in Homo sapiens (human) U1 nuclear extract after 0.5 to 4 hr by competitive EMSA
MOLT-4 [8] = test: Inhibition of NF-kappaB-mediated viral replication in Homo sapiens (human) Molt-4 cells infected with X4 tropic HIV1 NL4-3 at 10 uM after 24 hr by RT-PCR analysis; assay type: cell-based
U1 [9] = test: Inhibition of NF-kappaB-mediated viral replication in Homo sapiens (human) U1 cells […] at 10 uM after 24 hr by RT-PCR analysis in presence of TNF-alpha; assay type: cell-based
TZM-bl = test: Inhibition of NF-kappaB-mediated viral replication in Homo sapiens (human) TZM-bl cells infected with X4 tropic HIV1 NL4-3 compound pre-treated for 2hr before infection measured after 24 hr by luciferase assay; assay type: cell-based
[10] = system: Human immunodeficiency virus 1; test: Antiviral activity against X4 tropic Human immunodeficiency virus 1 NL4-3 infected human Molt4 cells assessed as intracellular p24 expression at 10 uM after 7 days by flow cytometry; assay type: functional, organism-based; conditions: MOLT-4
[11] = system: Human immunodeficiency virus 1; test: Antiviral activity against X4 tropic Human immunodeficiency virus 1 NL4-3 infected human Molt4 cells assessed as intracellular p24 expression after 4 to 7 days by flow cytometry; assay type: functional, organism-based; conditions: Human immunodeficiency virus 1, NL4-3, MOLT-4
[12] = system: Human immunodeficiency virus 1; test: Antiviral activity against X4 tropic Human immunodeficiency virus 1 NL4-3 infected human Molt4 cells assessed as intracellular p24 expression at 10 uM after 4 days by flow cytometry; assay type: functional, organism-based; conditions: MOLT-4
[13] = system: Human immunodeficiency virus 1; test: Antiviral activity against Human immunodeficiency virus 1 infected U1 cells assessed as intracellular p24 expression after 24 hr by flow cytometry in presence of TNF-alpha; assay type: functional, organism-based
[14] = system: Human immunodeficiency virus 1; test: Antiviral activity against Human immunodeficiency virus 1 infected U1 cells assessed as intracellular p24 expression after 24 hr by flow cytometry in presence of PMA; assay type: functional, organism-based
[15] = Selectivity index, ratio of IC50 for human MOLT4 cells to EC50 for X4 tropic HIV1 NL4-3 infected in human Molt4 cells; assay type: toxicity, cell-based, MOLT-4; conditions: read-out: Ratio IC50/EC50
[16] = Selectivity index, ratio of IC50 for PMA-stimulated human U1 cells to EC50 for X4 tropic HIV1 NL4-3 infected in PMA-stimulated human U1 cells; assay type: toxicity, cell-based; conditions: with X4 tropic HIV1 NL4-3, read-out: Ratio IC50/EC50
[17] = Selectivity index, ratio of IC50 for TNF-alpha-stimulated human U1 cells to EC50 for X4 tropic HIV1 NL4-3 infected in TNF-alpha-stimulated human U1 cells; assay type: toxicity, cell-based; conditions: with X4 tropic HIV1 NL4-3, read-out: Ratio IC50/EC50
[18] = Cytotoxicity against Homo sapiens (human) TZM-bl cells by MTT assay; assay type: cell-based
[19] = Human immunodeficiency virus 1, U1, 24 h

Transcription factor p65 (Homo sapiens), sequence (Q04206 whole entry): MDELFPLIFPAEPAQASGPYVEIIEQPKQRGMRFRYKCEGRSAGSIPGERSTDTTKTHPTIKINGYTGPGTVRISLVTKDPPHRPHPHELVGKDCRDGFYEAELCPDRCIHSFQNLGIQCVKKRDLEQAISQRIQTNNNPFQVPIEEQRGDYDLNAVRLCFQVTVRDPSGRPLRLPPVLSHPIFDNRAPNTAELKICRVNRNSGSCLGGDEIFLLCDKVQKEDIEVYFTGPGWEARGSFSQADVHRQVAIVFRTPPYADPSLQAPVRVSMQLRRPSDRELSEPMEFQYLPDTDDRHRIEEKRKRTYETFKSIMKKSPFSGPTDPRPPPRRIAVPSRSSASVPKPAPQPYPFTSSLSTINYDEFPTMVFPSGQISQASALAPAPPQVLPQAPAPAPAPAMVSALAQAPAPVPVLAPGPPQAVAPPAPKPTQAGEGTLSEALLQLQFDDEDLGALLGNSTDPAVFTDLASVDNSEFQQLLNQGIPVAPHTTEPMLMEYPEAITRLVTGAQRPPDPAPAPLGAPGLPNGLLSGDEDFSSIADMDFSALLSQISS

C/C=C(\C)C(=O)c1c(OC)c2c(c3c(CCC)cc(=O)oc13)OC(C)(C)C=C2
IC50 (MOLT-4 [1]): > 10 µM
IC50 (U1 [2]): 8.44 µM
IC50 (U1 [3]): 8.44 µM
inhibition [4]: Active
Activity [5]: inactive
inhibition [6]: Active
Activity [7]: Active
inhibition (MOLT-4 [8]): Active
inhibition (U1 [9]): Active
inhibition (TZM-bl): Active
Activity [10]: Active
EC50 [11]: 3.41 µM
Activity [12]: Active
Activity [13]: Dose-dependent effect
EC50 [13, 19]: 4.32 µM
Activity [14]: Dose-dependent effect
EC50 [14, 19]: 3.48 µM
selectivity ratio [15]: > 2.93
selectivity ratio [16]: 2.43
selectivity ratio [17]: 1.95
IC50 [18]: > 10 µM

CC(C)C[C@H](NC(=O)[C@H](Cc1ccccc1)NC(=O)c1cnccn1)B(O)O
inhibition (U1 [9]): Active

CC(C)(C)c1ccc(S(=O)(=O)/C=C/C#N)cc1
inhibition (U1 [9]): Active
